Some test systems named below: HOP-62 NSCLC; U251 CNS; HCT-116 colon; MDA-MB-231 breast; HS 578T breast; SF-539 CNS; A498 renal; MDA-MB-435; SK-OV-3 ovarian; K-562 leukemia; PC-3 prostate; HT29 colon; A549 NSCLC.
Common to all, as to assay: NCI anticancer screen, dose series, 48 h

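48-hour exposure; five concentrations; linearly interpolated endpoints. TGI denotes the concentration required for complete inhibition of growth.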 Bounds are passed on as bounds.

In the case of `Cc1cc(SCC(=O)c2ccc(Br)cc2)cc(C)[o+]1`, the TGI is > 100 µM with HOP-62 NSCLC; 90 µM with U251 CNS; 65.7 µM in the experiment with HCT-116 colon; 98.1 µM in the experiment with MDA-MB-231 breast; > 100 µM in the experiment on HS 578T breast; 44.5 µM with SF-539 CNS. Also, the TGI was 81.6 µM with A498 renal; 51.3 µM in the experiment with MDA-MB-435; > 100 µM in the experiment with SK-OV-3 ovarian; 74.9 µM with K-562 leukemia; > 100 µM in the experiment on PC-3 prostate; 65.2 µM with HT29 colon. Also, the TGI with A549 NSCLC is > 100 µM.
In the case of `COc1ccc2c(c1)CCC(CN1CCN(CCOC(c3ccc(F)cc3)c3ccc(F)cc3)CC1)=C2`, the TGI in the experiment with HOP-62 NSCLC is > 100 µM; in the experiment on U251 CNS, 42.9 µM; in the experiment with HCT-116 colon, 21.2 µM; in the experiment on MDA-MB-231 breast, 31.8 µM; with HS 578T breast, 50.7 µM; with SF-539 CNS, 42.3 µM. For the same compound, the TGI in the experiment on A498 renal is 48.1 µM; in the experiment on MDA-MB-435, 68.9 µM; in the experiment with SK-OV-3 ovarian it was > 100 µM; in the experiment with K-562 leukemia, > 100 µM; with PC-3 prostate, > 100 µM; with HT29 colon, 32.4 µM. The TGI in the experiment on A549 NSCLC is > 100 µM.
As to `CC(C)(C)[C@@H]1NC(=O)CN1C(=O)OCc1ccccc1`, the TGI in the experiment with HOP-62 NSCLC, in the experiment with U251 CNS, with HCT-116 colon, in the experiment on MDA-MB-231 breast, in the experiment on HS 578T breast and in the experiment on SF-539 CNS was > 100 µM in each case. For the same compound, the TGI in the experiment with A498 renal, in the experiment with MDA-MB-435, with SK-OV-3 ovarian, with K-562 leukemia, in the experiment on PC-3 prostate and in the experiment on HT29 colon was > 100 µM in each case. Further, the TGI in the experiment with A549 NSCLC is > 100 µM.
With `COc1ccc(N(C(=O)OC(C)(C)C)[C@@H]2C(C)=C[C@H]([S@@](=O)c3ccc(C)cc3)[C@@H]3C(=O)N(C)C(=O)[C@@H]32)cc1`, the TGI in the experiment with HOP-62 NSCLC came to 64.2 µM; in the experiment on U251 CNS it was 31.9 µM; with HCT-116 colon, 35.9 µM; in the experiment on MDA-MB-231 breast, 46.4 µM; in the experiment on HS 578T breast, 42.9 µM; with SF-539 CNS it was 43.5 µM. Also, the TGI with A498 renal was 29.3 µM; in the experiment on MDA-MB-435, 37.9 µM; in the experiment on SK-OV-3 ovarian it was 30.3 µM; with K-562 leukemia it was > 100 µM; with PC-3 prostate, > 100 µM; in the experiment on HT29 colon, 45.5 µM. In addition, the TGI in the experiment on A549 NSCLC is > 100 µM.
Regarding `CC1(C)OC1CC/C(=C/CBr)CBr` (stereo not given), the TGI stood at 31.6 µM with HOP-62 NSCLC; 29.3 µM in the experiment with U251 CNS; 33 µM in the experiment with HCT-116 colon; 30.1 µM in the experiment with MDA-MB-231 breast; 47.7 µM with HS 578T breast; 32.2 µM in the experiment with SF-539 CNS. Further, the TGI in the experiment on A498 renal was 47.9 µM; with MDA-MB-435, 31.9 µM; in the experiment on SK-OV-3 ovarian, 48.5 µM; in the experiment on K-562 leukemia, 49 µM; with PC-3 prostate, 29.3 µM; in the experiment on HT29 colon it was 30 µM. Besides, in the experiment on A549 NSCLC, the TGI was determined as 53.1 µM.
For the compound `CCOC(=O)C1(C(=O)OCC)C[C@H]2CON=C2[C@@H]1c1ccc(C(F)(F)F)cc1`, the TGI is 64.9 µM in the experiment on HOP-62 NSCLC; > 100 µM with U251 CNS; > 100 µM in the experiment with HCT-116 colon; > 100 µM in the experiment on MDA-MB-231 breast; > 100 µM with HS 578T breast; > 100 µM in the experiment on SF-539 CNS. The TGI in the experiment with A498 renal was 99.3 µM; with MDA-MB-435 it was > 100 µM; with SK-OV-3 ovarian, > 100 µM; with K-562 leukemia it was > 100 µM; in the experiment on PC-3 prostate, > 100 µM; in the experiment on HT29 colon it was > 100 µM. In addition, the TGI in the experiment on A549 NSCLC is > 100 µM.
Turning to `CCC(C#N)N(Cc1cccc(CN(C(C)=O)C(C#N)CC)c1)C(C)=O` (stereo not given), the TGI with HOP-62 NSCLC, in the experiment on U251 CNS, in the experiment on HCT-116 colon, in the experiment with MDA-MB-231 breast, in the experiment on HS 578T breast and in the experiment on SF-539 CNS was > 100 µM each time. Besides, the TGI in the experiment on A498 renal, in the experiment on MDA-MB-435, in the experiment with SK-OV-3 ovarian, in the experiment with K-562 leukemia, in the experiment with PC-3 prostate and in the experiment with HT29 colon was > 100 µM throughout. Further, the TGI in the experiment on A549 NSCLC was > 100 µM.
With `CCCCc1cc2c(cc1O)CCC1C2CC[C@@]2(C)C1CC[C@@H]2O` (stereo not given in full), the TGI worked out at 57.3 µM in the experiment on HOP-62 NSCLC; 64.7 µM in the experiment on U251 CNS; 36.6 µM in the experiment with HCT-116 colon; 62.1 µM with MDA-MB-231 breast; 43.8 µM in the experiment on HS 578T breast; 59.3 µM in the experiment with SF-539 CNS. In addition, the TGI in the experiment with A498 renal is 57.2 µM; with MDA-MB-435, 36.5 µM; with SK-OV-3 ovarian, 37.1 µM; in the experiment with K-562 leukemia, 43.6 µM; in the experiment on PC-3 prostate, 35.3 µM; in the experiment with HT29 colon, 50.3 µM. For the same compound, the TGI in the experiment with A549 NSCLC came out at 29.3 µM.
With `OC1(c2ccc(Cl)cc2)c2ccccc2C2=Nc3ccccc3CN21` (stereo not given), the TGI in the experiment on HOP-62 NSCLC is 30.8 µM; in the experiment on U251 CNS it was > 100 µM; with HCT-116 colon, 19 µM; in the experiment with MDA-MB-231 breast, > 100 µM; with HS 578T breast it was 74.1 µM; in the experiment with SF-539 CNS it was > 100 µM. Also, the TGI in the experiment on A498 renal was > 72.9 µM; with MDA-MB-435, > 100 µM; with SK-OV-3 ovarian, > 100 µM; in the experiment with K-562 leukemia, > 100 µM; with PC-3 prostate, > 100 µM; with HT29 colon it was 33.8 µM. In addition, the TGI in the experiment with A549 NSCLC was determined as 28.6 µM.
Turning to `Cc1cn2c(/C=C3/C(=O)Nc4ccccc43)c(-c3ccccc3)nc2s1`, the TGI was > 100 µM with HOP-62 NSCLC; > 100 µM in the experiment on U251 CNS; > 100 µM with HCT-116 colon; 57.7 µM in the experiment with MDA-MB-231 breast; 91 µM with HS 578T breast; 41.7 µM in the experiment on SF-539 CNS. Further, the TGI with A498 renal is > 100 µM; with MDA-MB-435, > 100 µM; in the experiment with SK-OV-3 ovarian, 76.4 µM; with K-562 leukemia it was > 100 µM; in the experiment on PC-3 prostate, > 100 µM; in the experiment on HT29 colon, > 100 µM. Moreover, the TGI in the experiment on A549 NSCLC was > 100 µM.

The values are drawn from PubChem BioAssay (NCI).
